Drawing on publication PMC6164480, “A New Synthetic Histone Deacetylase Inhibitor, MHY2256, Induces Apoptosis and Autophagy Cell Death in Endometrial Cancer Cells via p53 Acetylation” (International Journal of Molecular Sciences, 2018), this text covers IC50 for 2 compounds.

The target of this assay is T1, SIRT1 (Homo sapiens, UniProt Q96EB6).
T1 sequence (Q96EB6 2-747): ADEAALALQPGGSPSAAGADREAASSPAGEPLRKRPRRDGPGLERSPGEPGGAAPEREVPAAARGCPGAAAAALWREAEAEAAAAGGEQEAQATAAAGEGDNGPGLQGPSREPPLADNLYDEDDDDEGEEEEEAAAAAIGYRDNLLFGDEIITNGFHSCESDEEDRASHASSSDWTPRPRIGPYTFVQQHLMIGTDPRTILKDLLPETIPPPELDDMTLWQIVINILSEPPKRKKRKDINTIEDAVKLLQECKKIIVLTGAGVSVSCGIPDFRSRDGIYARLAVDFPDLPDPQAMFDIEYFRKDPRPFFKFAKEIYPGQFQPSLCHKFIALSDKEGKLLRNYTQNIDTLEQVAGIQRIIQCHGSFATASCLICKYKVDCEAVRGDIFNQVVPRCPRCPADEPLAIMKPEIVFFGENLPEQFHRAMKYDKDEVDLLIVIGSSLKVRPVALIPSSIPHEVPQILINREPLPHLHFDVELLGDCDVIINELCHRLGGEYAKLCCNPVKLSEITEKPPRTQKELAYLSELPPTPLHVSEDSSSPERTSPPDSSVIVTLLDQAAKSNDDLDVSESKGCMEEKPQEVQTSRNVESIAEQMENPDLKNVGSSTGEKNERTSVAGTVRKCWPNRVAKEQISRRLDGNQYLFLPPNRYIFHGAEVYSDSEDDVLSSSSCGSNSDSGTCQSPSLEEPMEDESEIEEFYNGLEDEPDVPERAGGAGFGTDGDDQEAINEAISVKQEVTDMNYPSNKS
Briefly: SensoLyte […] FRET fluorimetric SIRT1 enzyme activity assay kit. The class given is biochemical.

In general, IC50 refers to the concentration that inhibits the measured activity by half. Read a low IC50 as higher potency. For the compound `CC(C)(C)c1cc(C=C2C(=O)NC(=S)NC2=O)cc(C(C)(C)C)c1O` [MHY2256, 5-(3,5-di-tert-butyl-4-hydroxybenzylidene)-2-thioxodihydropyrimidine-4,6(1H,5H)-dione], it took 1.89 µM to reach half-maximal inhibition (IC50). For `CC(C(=O)Nc1cccc(/N=C/c2c(O)ccc3ccccc23)c1)c1ccccc1` (centres unmarked) [salermide], it took 4.8 µM to reach half-maximal inhibition (IC50). Compared with the last compound, the IC50 is about 2.5-fold higher.
